From publication PMC3362575, “Synthesis and Biological Evaluation of Phenanthrenes as Cytotoxic Agents with Pharmacophore Modeling and ChemGPS-NP Prediction as Topo II Inhibitors” (PLoS ONE, 2012)
≈ marks a conversion by molar mass, not a printed value. Where two headings read alike, the source gives them in different places.

Legend:
HepG2 = experiment: MTT cytotoxicity assay, HepG2; format: cell-based, human; settings: Homo sapiens
Description: (§1) The cytotoxic assay of 11 naturally occurring and 19 synthesized phenanthrenes was carried out on a diverse set of human liver (HepG2 and Hep3B), oral (Ca9-22), lung (A549) and breast (MEA-MB-231 and MCF7) cancer cell lines, and a human fetal lung fibroblast (MRC-5) cell line (Tables 1 and 2).
(§2) Compounds were tested against human liver (HepG2 and Hep3B), oral (Ca9-22), lung (A549), breast (MEA-MB-231 and MCF7) cancer cell lines, and the human fetal lung fibroblast (MRC-5) cell line using an established colorimetric MTT assay protocol. The absorbance was measured at 550 nm using a microplate reader. The IC50 is the concentration of agent that reduced cell growth by 50% under the experimental conditions.

Hep3B = experiment: MTT cytotoxicity assay, Hep3B; format: cell-based, human; settings: Homo sapiens, Hep3B
Description: as §1, §2

Ca9-22 = experiment: MTT cytotoxicity assay, Ca9-22; format: cell-based, human; settings: Homo sapiens
Description: as §1, §2

A549 = experiment: MTT cytotoxicity assay, A549; format: cell-based, human; settings: Homo sapiens
Description: as §1, §2

MCF-7 = experiment: MTT cytotoxicity assay, MCF-7; format: cell-based, human; settings: Homo sapiens; for IC50: MTT; for MCF-7 activity class (from IC50): MCF7, Table S3, read-out: Scale Exptl. (MCF-7 activity class)
Description: as §1, §2
The pharmacophore modeling with Catalyst HypoGen was performed via Discovery Studio 2.1 (Accelrys, San Diego, CA, USA). Twenty-nine phenanthrene derivatives were collected from the natural plant, C. arisanensis, and from chemical synthesis (Figure 2). Cytotoxicity against MCF-7 cells was determined by the MTT assay and the concentration (µg/mL) of test compound which inhibited 50% of the cancer cells (IC50) was used in the generation of the pharmacophore model. An IC50 value of >20 µg/mL was defined as 20 µg/mL. All experimental IC50 values spanned about 2–3 orders of magnitude from 0.09 to 20 µg/mL. The 2D/3D structures of compounds were generated using ChemBioOffice 2008 (Cambridge Scientic Computing, Cambridge, Massachusetts, USA) and then optimized in a Dreiding force field. The conformational ensemble of each compound was generated using the best conformational analysis method based on a CHARMM force field with a 20 kcal/mol energy threshold above the global minimum. A maximum limit of 255 conformations was used to cover maximum conformational space. The best 3D arrangements of chemical functionalities should explain the activity variations among the 29 compounds. Thirty runs with different parameters were performed for the best pharmacophore hypothesis. Four chemical features, including hydrogen-bond acceptor (HBA), hydrogen-bond donor (HBD), hydrophobic (HYD), and aromatic ring (AR) features, were also tested during the building of pharmacophore hypotheses (Table S1; Text S1). The best hypotheses were selected via a correlation and a cost analysis in Catalyst HypoGen.

MDA-MB-231 = experiment: MTT cytotoxicity assay, MDA-MB-231; format: cell-based, human; settings: Homo sapiens
Description: as §1, §2

MRC-5 = experiment: MTT cytotoxicity assay, MRC-5 fetal lung fibroblast; format: cell-based, human; settings: Homo sapiens, normal fetal lung fibroblast
Description: as §1, §2

human topoisomerase IIα = system: human topoisomerase IIα; parameters: method as in PMID 15182198; settings: cited from earlier work
human cancer cell lines = experiment: MTT cytotoxicity assay, ranges over the cancer cell line panel; format: cell-based; settings: for IC50: Homo sapiens
Description: as §1, §2

topoisomerase IIα = molecular target: T1, topoisomerase IIα (Homo sapiens, UniProt P11388); experiment: Topoisomerase II DNA cleavage assay (Topo II Drug Screening Kit); format: biochemical
T1 construct: purchased TopoGEN, Inc
T1 sequence (P11388 whole entry): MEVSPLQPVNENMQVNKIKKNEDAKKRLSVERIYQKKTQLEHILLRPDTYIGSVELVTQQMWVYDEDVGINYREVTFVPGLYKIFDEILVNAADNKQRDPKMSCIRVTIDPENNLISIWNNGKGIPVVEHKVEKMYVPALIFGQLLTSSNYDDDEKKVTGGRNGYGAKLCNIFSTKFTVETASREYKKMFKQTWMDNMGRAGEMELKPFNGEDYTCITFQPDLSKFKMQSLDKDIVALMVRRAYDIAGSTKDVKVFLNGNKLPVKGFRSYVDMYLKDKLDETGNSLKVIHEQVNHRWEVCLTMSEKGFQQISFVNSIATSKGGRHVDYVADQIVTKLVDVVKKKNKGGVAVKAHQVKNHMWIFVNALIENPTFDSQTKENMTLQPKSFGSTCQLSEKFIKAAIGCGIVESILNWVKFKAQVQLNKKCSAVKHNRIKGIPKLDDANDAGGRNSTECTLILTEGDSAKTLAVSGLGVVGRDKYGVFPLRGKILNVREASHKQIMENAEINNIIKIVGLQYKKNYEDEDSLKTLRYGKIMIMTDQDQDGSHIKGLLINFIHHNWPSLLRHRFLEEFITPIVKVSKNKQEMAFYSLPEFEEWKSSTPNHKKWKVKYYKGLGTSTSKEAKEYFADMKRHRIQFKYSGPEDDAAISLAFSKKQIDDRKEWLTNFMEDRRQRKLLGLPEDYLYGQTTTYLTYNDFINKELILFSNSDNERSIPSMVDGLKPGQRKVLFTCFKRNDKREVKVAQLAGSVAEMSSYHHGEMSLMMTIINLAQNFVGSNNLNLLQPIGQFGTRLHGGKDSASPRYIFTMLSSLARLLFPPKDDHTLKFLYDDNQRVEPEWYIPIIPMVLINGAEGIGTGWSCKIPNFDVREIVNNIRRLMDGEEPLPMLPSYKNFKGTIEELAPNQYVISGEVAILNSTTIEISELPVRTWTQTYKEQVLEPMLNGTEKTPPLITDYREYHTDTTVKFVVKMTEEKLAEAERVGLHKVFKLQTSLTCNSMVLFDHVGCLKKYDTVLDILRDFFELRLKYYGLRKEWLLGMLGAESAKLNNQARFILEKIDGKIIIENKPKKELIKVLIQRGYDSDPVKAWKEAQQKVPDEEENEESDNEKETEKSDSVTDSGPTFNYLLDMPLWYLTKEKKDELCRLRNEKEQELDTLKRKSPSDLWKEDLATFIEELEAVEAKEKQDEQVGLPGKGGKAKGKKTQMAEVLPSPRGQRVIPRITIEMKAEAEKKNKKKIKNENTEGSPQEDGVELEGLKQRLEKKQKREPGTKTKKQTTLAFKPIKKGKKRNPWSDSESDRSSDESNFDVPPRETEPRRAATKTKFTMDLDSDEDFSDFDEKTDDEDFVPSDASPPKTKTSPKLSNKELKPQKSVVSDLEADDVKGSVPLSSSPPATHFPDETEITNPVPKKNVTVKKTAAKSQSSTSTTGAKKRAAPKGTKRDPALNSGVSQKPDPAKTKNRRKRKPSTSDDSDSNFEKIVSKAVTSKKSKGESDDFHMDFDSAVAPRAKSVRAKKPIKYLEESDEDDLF
Description: From the ChemGPS-NP analysis, it seems that the MOA for 3-methoxy-1,4-PQs might processes cytotoxicity as a topoisomerase II inhibitor.
Figure 10 Topoisomerase II DNA cleavage assay. An in vitro assay was used to assess the effect of compounds 6a and 5a on the DNA cleavage activity of human TopoII. Etoposide was the positive control. Control lane: TopoIIα + plasmid DNA. DMSO lane: TopoIIα + plasmid DNA + DMSO.
Topoisomerase II assay was performed by using a Topo II Drug Screening Kit (TopoGEN, Inc.). In brief, 0.1 µg of pHOT plasmid DNA was incubated with 2 units of topoisomerase IIα in 20 µL assay buffer at 37°C for 40 min in the presence of tested compounds (6a, 5a) and control drug, etoposide, respectively. 2 µL of 10% SDS and 2.5 µL of 10 mg/mL proteinase K were added into the reaction sample and then incubated for 30 min at 37°C to digest topoisomerase IIα. The samples were mixed with 2 µL of loading buffer and cleaned up by adding an equal volume of phenol:chloroform:isoamyl alcohol (25∶24∶1) according to the description. The sample was mixed by vortex and centrifuge for 10 sec. An aliquot (10 µL) of the upper aqueous part was analyzed by electrophoresis with 2% agarose gel containing 0.5 µg/mL of ethidium bromide.

[1] = HepG2, Table 2, synthesized phenanthrenes
[2] = Table 2, synthesized phenanthrenes
[3] = Ca9-22, Table 2, synthesized phenanthrenes
[4] = A549, Table 2, synthesized phenanthrenes
[5] = MCF7, Table 2, synthesized phenanthrenes
[6] = MDA-MB-231, Table 2, synthesized phenanthrenes
[7] = MRC5, Table 2, synthesized phenanthrenes
[8] = range over the cancer cell lines tested, read-out: IC50 against various / all human cancer cell lines

With `COc1cc(OC)c2c3c(ccc2c1)C(=O)C=CC3=O` [Compound 4b, 5,7-Dimethoxy-1,4-phenanthrenequinone] the IC50 (HepG2; [1]) was 18.64 ± 0.14 µg/mL (≈ 69.5 µM), the IC50 (Hep3B; [2]) was 12.1 ± 0.33 µg/mL (≈ 45.1 µM) and the IC50 (Ca9-22; [3]) was 3.45 ± 0.03 µg/mL (≈ 12.9 µM). The IC50 (A549; [4]) was greater than 20 µg/mL, the IC50 (MCF-7; [5]) was 15.63 ± 0.01 µg/mL (≈ 58.3 µM) and the MCF-7 activity class (from IC50) (MCF-7) was 1 to 20 µg/mL. It also gave an IC50 (MDA-MB-231; [6]) of 7.09 ± 0.01 µg/mL (≈ 26.4 µM), an IC50 (MRC-5; [7]) greater than 20 µg/mL and a melting point of 121 °C.
For `O=C1C=CC(=O)C=C1` [1,4-benzoquinone], the “poisoning of human topoisomerase IIα” value (human topoisomerase IIα) is given as “poison human topoisomerase IIα”.
`COC1=CC(=O)c2ccc3cc(OC)cc(O)c3c2C1=O` [Compound 6b, 5-Hydroxy-3,7-dimethoxy-1,4-phenanthrenequinone] gave an IC50 (HepG2; [1]) of 0.23 ± 0.01 µg/mL (≈ 0.809 µM), an IC50 (Hep3B; [2]) of 0.34 µg/mL (≈ 1.2 µM) and an IC50 (Ca9-22; [3]) of 0.68 µg/mL (≈ 2.39 µM). It also gave an IC50 (A549; [4]) of 0.99 ± 0.02 µg/mL (≈ 3.48 µM), an IC50 (MCF-7; [5]) of 0.26 µg/mL (≈ 0.915 µM) and an IC50 (MDA-MB-231; [6]) of 1.06 ± 0.03 µg/mL (≈ 3.73 µM). For the same molecule, the IC50 (MRC-5; [7]) was 2.14 ± 0.08 µg/mL (≈ 7.53 µM) and the IC50 (human cancer cell lines; [8]) was 0.08 to 1.66 µg/mL (≈ 0.281 to 5.84 µM).
With `COC1=CC(=O)c2ccc3cc(OC)c(OC)c(O)c3c2C1=O` [Compound 6a, 5-Hydroxy-3,6,7-trimethoxy-1,4-phenanthrenequinone] the IC50 (HepG2; HepG2, Table 1, natural phenanthrenes) was 0.21 ± 0.01 µg/mL (≈ 0.668 µM), the IC50 (HepG2; [1]) was 0.08 µg/mL (≈ 0.255 µM) and the IC50 (Hep3B; Table 1, natural phenanthrenes) was 0.22 µg/mL (≈ 0.7 µM). For the same molecule, the IC50 (Hep3B; [2]) was 0.19 ± 0.01 µg/mL (≈ 0.605 µM), the IC50 (Ca9-22; Ca9-22, Table 1, natural phenanthrenes) was 0.17 ± 0.01 µg/mL (≈ 0.541 µM) and the IC50 (Ca9-22; [3]) was 0.59 ± 0.01 µg/mL (≈ 1.88 µM). The IC50 (A549; A549, Table 1, natural phenanthrenes) was 0.11 µg/mL (≈ 0.35 µM), the IC50 (A549; [4]) was 0.14 ± 0.02 µg/mL (≈ 0.445 µM) and the IC50 (MCF-7; MCF7, Table 1, natural phenanthrenes) was 0.09 µg/mL (≈ 0.286 µM). For the same molecule, the IC50 (MCF-7; [5]) was 0.2 µg/mL (≈ 0.636 µM), the MCF-7 activity class (from IC50) (MCF-7) was less than 1 µg/mL and the IC50 (MDA-MB-231; MDA-MB-231, Table 1, natural phenanthrenes) was 0.64 ± 0.06 µg/mL (≈ 2.04 µM). For the same molecule, the IC50 (MDA-MB-231; [6]) was 0.89 ± 0.01 µg/mL (≈ 2.83 µM), the IC50 (MRC-5; MRC5, Table 1, natural phenanthrenes) was 0.65 µg/mL (≈ 2.07 µM) and the IC50 (MRC-5; [7]) was 0.6 ± 0.05 µg/mL (≈ 1.91 µM). For the same molecule, the “fold greater cytotoxic activity than denbinobin (6b)” value (human cancer cell lines; HepG2, Hep3B, Ca9-22, A549, MEA-MB-231 and MCF7 cancer cell lines) was “up to 7 fold”, the IC50 (human cancer cell lines; [8]) was 0.08 to 1.66 µg/mL (≈ 0.255 to 5.28 µM) and the “inhibition on Topo IIα (supercoiled DNA instead of relaxed)” value (topoisomerase IIα; 100 µmol/L) was “showed the inhibition on Topo IIα”. The “formation of linear DNA (Topo IIα DNA cleavage complex)” value (topoisomerase IIα; pHOT plasmid DNA, topoisomerase IIα) was “induced the formation of linear DNA”.
`COC1=CC(=O)c2ccc3cc(OC)c(OC)c(OC(C)=O)c3c2C1=O` [Compound 7a, 5-Acetoxy-3,6,7-trimethoxy-1,4-phenanthrenequinone] showed an IC50 (HepG2; [1]) of 11.3 ± 0.14 µg/mL (≈ 31.7 µM), an IC50 (Hep3B; [2]) of 0.36 ± 0.14 µg/mL (≈ 1.01 µM) and an IC50 (Ca9-22; [3]) of 0.84 ± 0.05 µg/mL (≈ 2.36 µM). It also gave an IC50 (A549; [4]) of 0.6 ± 0.01 µg/mL (≈ 1.68 µM), an IC50 (MCF-7; [5]) of 0.16 µg/mL (≈ 0.449 µM) and an MCF-7 activity class (from IC50) (MCF-7) of less than 1 µg/mL. For the same molecule, the IC50 (MDA-MB-231; [6]) was 1.13 ± 0.05 µg/mL (≈ 3.17 µM), the IC50 (MRC-5; [7]) was 1.14 ± 0.01 µg/mL (≈ 3.2 µM) and the IC50 (human cancer cell lines; HepG2, range over five cancer cell lines, not including HepG2, read-out: IC50 against five cancer cell lines) was 0.16 to 1.66 µg/mL (≈ 0.449 to 4.66 µM). For the same molecule, the IC50 (human cancer cell lines; [8]) was 0.08 to 1.66 µg/mL (≈ 0.225 to 4.66 µM).
